# Results published in patent US12312330B2, “1-((S)-1-(3-chloro-5-fluoro-2-((4-(1h-pyrazol-1-yl)-2-methylquinolin-8-yloxy)methyl)phenyl)ethyl)-imidazolidine-2,4-dione derivatives and related compounds as bradykinin (BK) B2 receptor antagonist for treating skin diseases” (Pharvaris GmbH, priority 2019, dated 2025).
# Molecular target: T1, human bradykinin B2 receptor (hB2R) (Homo sapiens, UniProt P30411)
# T1 sequence (P30411 1-391): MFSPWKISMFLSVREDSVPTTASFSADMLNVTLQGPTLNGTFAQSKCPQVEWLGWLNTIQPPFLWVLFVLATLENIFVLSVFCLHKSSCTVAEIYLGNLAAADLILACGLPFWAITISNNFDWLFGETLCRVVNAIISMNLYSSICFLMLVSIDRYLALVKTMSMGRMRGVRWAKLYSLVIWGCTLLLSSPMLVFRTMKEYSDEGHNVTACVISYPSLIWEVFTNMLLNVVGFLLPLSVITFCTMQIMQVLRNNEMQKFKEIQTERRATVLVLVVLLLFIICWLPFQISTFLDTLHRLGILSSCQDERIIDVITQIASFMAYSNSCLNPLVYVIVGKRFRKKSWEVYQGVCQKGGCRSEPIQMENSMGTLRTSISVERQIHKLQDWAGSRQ
# Assay: human bradykinin B2 receptor calcium mobilization (hB2R-CaM) assay
# Format: cell-based
# Details: antagonism of bradykinin (EC80) induced calcium mobilization, B2 Bradykinin Receptor Stable Cell Line HTS041C, 25 min pre-incubation; read-out: IC50-value towards human bradykinin B2 receptor (hB2R)
# From the text: The following cell-based human bradykinin B2 receptor calcium mobilization (hB2R-CaM) assay was used to determine the antagonistic activity of compounds selected from the example compounds Nos. 1 to 107 towards human bradykinin B2 receptor (hB2R). The assay is defined herein as a standard in vitro B2 receptor activity assay, which can be used to determine IC50 values of the compounds according to the present invention, e. g. the compounds shown in Examples 1-13.
# The antagonistic activity of compounds according to the present invention was investigated with the hB2R-CaM assay using the B2 Bradykinin Receptor Stable Cell Line HTS041C (Eurofins, St. Charles MO) and the FLIPR Calcium 6 Assay Kit (Molecular Devices, Wokingham, UK) according to the instructions of the providers. CaM assay measurements were performed with a Flexstation 3 System (Molecular Devices) which allows the precise addition of compounds (B2R antagonists) and bradykinin (B2R agonist) to the cells and adjacent continuous recording of the time-dependent CaM assay signals.
# HTS041C cells were cultured in high glucose DMEM cell culture medium (Lonza) supplemented with 10% heat-inactivated FBS (PAN Biotech), 10 mM HEPES, Penicillin/Streptomycin (200 U/mL, 200 μg/mL), lx non-essential amino acids (Lonza), and 250 μg/mL G418 (Invivogen) in cell incubator at 37° C. in a 5% CO2 atmosphere. One day before the CaM assay experiments cells were seeded in 200 μL DMEM cell culture medium with reduced FBS (5%) and without G418 on clear bottom black 96 well plates (ThermoFisher #165305). Cell starvation was carried out by incubation (37° C., 5% CO2) of 70.000 cells/well for 24 h to 28 h. Immediately prior calcium dye-loading the medium was carefully aspirated and cells were washed with Hank's balanced salt solution (HBSS, Gibco) containing Ca^2+, Mg^2+ and 20 mM HEPES, adjusted to pH 7.4 (HBSS+).
# For calcium dye-loading one FLIPR 6 assay aliquot was dissolved in 20 mL HBSS+. 150 μL of the dye loading solution was added to cell plate and incubated for 120 min at 37° C. and 5% CO2. After dye loading the cell plate was immediately transferred to the pre-warmed (37° C.) Flexstation 3 System for CaM assaying.
# Freshly prepared compound (B2 receptor antagonists) dilution series (8 pt, n=2) and bradykinin (B2 receptor agonist) solution in non-binding plates (Costar) were transferred to the Flexstation System (source plate) shortly before starting the experiment. Bradykinin was added in EC80 concentration determined in n>3 preliminary experiments with 8 pt concentration response curves (n=8)). CaM assay was executed by Flexstation 3 System starting with recording of calcium-sensitive dye fluorescence in bottom-read Flex modus with ex/em=485 nm/525 nm, cut off(em)=515 nm After 20 s, 50 μL of 4-fold concentrated compound dilutions were added to the cells resulting in a final DMSO (Sigma) concentration of 0.1% in the cell plate. CaM signals were monitored for 80 s after additions for detection of potential agonistic activities. Prior to bradykinin stimulus compound- and vehicle-treated cells were incubated for 25 min at 37° C. within the Flexstation System. Then 50 μL of a 5-fold concentrated bradykinin solution (HBSS+, 0.1% DMSO) was added to trigger CaM signals (Read out: Max-Min values) which were measured for 80 s post bradykinin stimulus.
# IC50 determinations were performed by 4 parameter logistic model curve fitting of the 8 pt (n=2) compound concentration response curves using XLFIT (IDBS) software.
row,Structure (SMILES),IC50 [nM]
1,Cc1cc(-c2ncnn2C)c2cccc(OCc3c(Cl)cc(F)cc3[C@H](C)N3CC[C@H](N)C3=O)c2n1 [compound 69],11 to 100
2,Cc1cc(-c2ncnn2C)c2cccc(OCc3c(Cl)cc(F)cc3[C@H](C)N3C[C@H](C)OCC3=O)c2n1 [compound 41],≤ 10
3,Cc1cc(-c2ncnn2C)c2cccc(OCc3c(Cl)cc(F)cc3[C@H](C)N3C[C@H](O)CC3=O)c2n1 [compound 96],11 to 100
4,"Cc1cc(-n2cc(F)cn2)c2cccc(OCc3c(Cl)cc(F)cc3[C@H](C)N3C[C@@H](C)N(C)C(=O)C3=O)c2n1 [Compound No. 11, (R)-1-((S)-1-(3-chloro-5-fluoro-2-((4-(4-fluoro-1H-pyrazol-1-yl)-2-methylquinolin-8-yloxy)methyl)phenyl)ethyl)-4,5-dimethylpiperazine-2,3-dione]",≤ 10
5,Cc1cc(-n2cc(F)cn2)c2cccc(OCc3c(Cl)cc(F)cc3[C@H](C)N3C[C@@H](O)CC3=O)c2n1 [compound 72],≤ 10
6,"Cc1cc(-n2cc(F)cn2)c2cccc(OCc3c(Cl)cc(F)cc3[C@H](C)N3CCOC(C)C3=O)c2n1 (single isomer, unassigned) [compound 35]",11 to 100
7,"Cc1cc(-n2cc(F)cn2)c2cccc(OCc3c(Cl)cc(F)cc3[C@H](C)N3C(=O)N(C4CC4)C(=O)C3C)c2n1 (single isomer, unassigned) [compound 30]",≤ 10
8,Cc1cc(-n2cc(F)cn2)c2cccc(OCc3c(Cl)cc(F)cc3[C@H](C)N3CC(=O)N(CCN(C)C)C3=O)c2n1 [compound 24],11 to 100
9,Cc1cc(-n2cc(F)cn2)c2cccc(OCc3c(Cl)cc(F)cc3[C@H](C)N3CC(=O)N(CC(=O)N(C)C)C3=O)c2n1 [compound 21],11 to 100
10,Cc1cc(-n2cc(F)cn2)c2cccc(OCc3c(Cl)cc(F)cc3[C@H](C)N3C[C@@H](O)CCC3=O)c2n1 [compound 45],≤ 10
11,Cc1cc(-n2cc(F)cn2)c2cccc(OCc3c(Cl)cc(F)cc3[C@H](C)N3CC(=O)N(C)CC3=O)c2n1 [compound 46],≤ 10
12,Cc1cc(-n2cc(F)cn2)c2cccc(OCc3c(Cl)cc(F)cc3[C@H](C)N3CCN(C)[C@H](C)C3=O)c2n1 [compound 93],≤ 10
13,Cc1cc(-n2cc(F)cn2)c2cccc(OCc3c(Cl)cc(F)cc3[C@H](C)N3CC(=O)N(C4CC4)C3=O)c2n1 [compound 17],11 to 100
14,"Cc1cc(-c2ncnn2C)c2cccc(OCc3c(Cl)cc(F)cc3[C@H](C)N3C(=O)N(C4CC4)C(=O)C3C)c2n1 (single isomer, unassigned) [compound 56]",11 to 100
15,Cc1cc(-n2cc(F)cn2)c2cccc(OCc3c(Cl)cc(F)cc3[C@H](C)N3CCNCC3=O)c2n1 [compound 57],11 to 100
16,Cc1cc(-n2cc(F)cn2)c2cccc(OCc3c(Cl)cc(F)cc3[C@H](C)N3CC(=O)N(CCN)C3=O)c2n1 [compound 23],11 to 100
17,"Cc1cc(-n2cc(F)cn2)c2cccc(OCc3c(Cl)cc(F)cc3[C@H](C)N3CCC(C)C3=O)c2n1 (single isomer, unassigned) [compound 58]",11 to 100
18,Cc1cc(-n2cc(F)cn2)c2cccc(OCc3c(Cl)cc(F)cc3[C@H](C)N3CC(=O)N(C)[C@H](C)C3=O)c2n1 [compound 103],11 to 100
19,Cc1cc(-n2cc(F)cn2)c2cccc(OCc3c(Cl)cc(F)cc3[C@H](C)N3CCC[C@@H](O)C3=O)c2n1 [compound 84],11 to 100
20,Cc1cc(-n2cc(F)cn2)c2cccc(OCc3c(Cl)cc(F)cc3[C@H](C)N3CC(=O)N(CC(=O)O)C3=O)c2n1 [compound 22],11 to 100
21,Cc1cc(-c2ncnn2C)c2cccc(OCc3c(Cl)cc(F)cc3[C@H](C)N3CCC[C@H](O)C3=O)c2n1 [compound 85],101 to 500
22,Cc1cc(-n2cc(F)cn2)c2cccc(OCc3c(Cl)cc(F)cc3[C@H](C)N3CCN(C)C(=O)C3=O)c2n1 [compound 87],≤ 10
23,Cc1cc(-c2ncnn2C)c2cccc(OCc3c(Cl)cc(F)cc3[C@H](C)N3CC(=O)N(C)[C@H](C)C3=O)c2n1 [compound 104],≤ 10
24,"Cc1cc(-c2ncnn2C)c2cccc(OCc3c(Cl)cc(F)cc3[C@H](C)N3CCC[C@@H](O)C3=O)c2n1 [Compound No. 7, (R)-1-((S)-1-(3-chloro-5-fluoro-2-((2-methyl-4-(1-methyl-1H-1,2,4-triazol-5-yl)quinolin-8-yloxy)methyl)phenyl)ethyl)-3-hydroxypiperidin-2-one]",11 to 100
25,Cc1cc(-n2cc(F)cn2)c2cccc(OCc3c(Cl)cc(F)cc3[C@H](C)N3CC(=O)N(C(C)C)C3=O)c2n1 [compound 14],11 to 100
26,Cc1cc(-c2ncnn2C)c2cccc(OCc3c(Cl)cc(F)cc3[C@H](C)N3C[C@@H](C)NC(=O)C3=O)c2n1 [compound 98],≤ 10
27,Cc1cc(-c2ncnn2C)c2cccc(OCc3c(Cl)cc(F)cc3[C@H](C)N3CC[C@@H](O)C3=O)c2n1 [compound 43],11 to 100
28,Cc1cc(-c2ncnn2C)c2cccc(OCc3c(Cl)cc(F)cc3[C@H](C)N3CC(=O)N(C)[C@@H](C)C3=O)c2n1 [compound 74],11 to 100

# More lines, now with the values ahead:
row,IC50 [nM],Structure (SMILES)
1,≤ 10,Cc1cc(-c2ncnn2C)c2cccc(OCc3c(Cl)cc(F)cc3[C@H](C)N3C[C@H](C)NC(=O)C3=O)c2n1 [compound 68]
2,11 to 100,"Cc1cc(-n2cc(F)cn2)c2cccc(OCc3c(Cl)cc(F)cc3[C@H](C)N3CCN(C)CC3=O)c2n1 [Compound No. 9, (S)-1-(1-(3-chloro-5-fluoro-2-((4-(4-fluoro-1H-pyrazol-1-yl)-2-methylquinolin-8-yloxy)methyl)phenyl)ethyl)-4-methylpiperazin-2-one]"
3,≤ 10,Cc1cc(-c2ncnn2C)c2cccc(OCc3c(Cl)cc(F)cc3[C@H](C)N3CC[C@H](F)C3=O)c2n1 [compound 91]
4,≤ 10,"Cc1cc(-c2ncnn2C)c2cccc(OCc3c(Cl)cc(F)cc3[C@H](C)N3CC[C@@H](F)C3=O)c2n1 [Compound No. 5, (R)-1-((S)-1-(3-chloro-5-fluoro-2-((2-methyl-4-(1-methyl-1H-1,2,4-triazol-5-yl)quinolin-8-yloxy)methyl)phenyl)ethyl)-3-fluoropyrrolidin-2-one]"
5,11 to 100,Cc1cc(-c2ncnn2C)c2cccc(OCc3c(Cl)cc(F)cc3[C@H](C)N3C(=O)[C@@H](C)NC(=O)[C@H]3C)c2n1 [compound 105]
6,11 to 100,Cc1cc(-c2ncnn2C)c2cccc(OCc3c(Cl)cc(F)cc3[C@H](C)N3CC(=O)N(C)CC3=O)c2n1 [compound 47]
7,≤ 10,Cc1cc(-n2cc(F)cn2)c2cccc(OCc3c(Cl)cc(F)cc3[C@H](C)N3C[C@H](O)CCC3=O)c2n1 [compound 82]
8,11 to 100,Cc1cc(-n2cc(F)cn2)c2cccc(OCc3c(Cl)cc(F)cc3[C@H](C)N3CCOCC3=O)c2n1 [compound 18]
9,11 to 100,"COC1CN([C@@H](C)c2cc(F)cc(Cl)c2COc2cccc3c(-n4cc(F)cn4)cc(C)nc23)C(=O)O1 (single isomer, unassigned) [compound 51]"
10,11 to 100,Cc1cc(-n2cc(F)cn2)c2cccc(OCc3c(Cl)cc(F)cc3[C@H](C)N3CCCCC3=O)c2n1 [compound 16]
11,≤ 10,Cc1cc(-n2cc(F)cn2)c2cccc(OCc3c(Cl)cc(F)cc3[C@H](C)N3CCNC(=O)C3=O)c2n1 [compound 50]
12,≤ 10,Cc1cc(-c2ncnn2C)c2cccc(OCc3c(Cl)cc(F)cc3[C@H](C)N3CCOCC3=O)c2n1 [compound 34]
